According to ChEMBL document CHEMBL1141332, “Cytotoxic metabolites from an Indonesian sponge Lendenfeldia sp” (J Nat Prod, 2007):

Legend:
Type in all cases: functional
HL-60 = assay: Cytotoxicity against human HL60 cells; details: Homo sapiens, HL-60
MOLT-4 = assay: Cytotoxicity against human MOLT4 cells
RPMI-8226 = assay: Cytotoxicity against human RPMI8226 cells
SR = assay: Cytotoxicity against human SR cells
A549 = assay: Cytotoxicity against human A549 cells
EKVX = assay: Cytotoxicity against human EKVX cells
HOP-62 = assay: Cytotoxicity against human HOP62 cells
HOP-92 = assay: Cytotoxicity against human HOP92 cells
NCI-H226 = assay: Cytotoxicity against human NCI-H226 cells
NCI-H23 = assay: Cytotoxicity against human NCI-H23 cells
NCI-H322M = assay: Cytotoxicity against human NCI-H322M cells
NCI-H460 = assay: Cytotoxicity against human NCI-H460 cells
COLO 205 = assay: Cytotoxicity against human COLO205 cells
HCC 2998 = assay: Cytotoxicity against human HCC2998 cells
HCT-116 = assay: Cytotoxicity against human HCT116 cells
HCT-15 = assay: Cytotoxicity against human HCT15 cells
KM12 = assay: Cytotoxicity against human KM12 cells
SW-620 = assay: Cytotoxicity against human SW620 cells
SF-268 = assay: Cytotoxicity against human SF268 cells
SF-295 = assay: Cytotoxicity against human SF295 cells
SF-539 = assay: Cytotoxicity against human SF539 cells
SNB-19 = assay: Cytotoxicity against human SNB19 cells; details: read-out: Log LC50 (the source's name) (converted)
SNB-75 = assay: Cytotoxicity against human SNB75 cells
M14 = assay: Cytotoxicity against human M14 cells
SK-MEL-2 = assay: Cytotoxicity against human SK-MEL-2 cells
SK-MEL-28 = assay: Cytotoxicity against human SK-MEL-28 cells
SK-MEL-5 = assay: Cytotoxicity against human SK-MEL-5 cells
UACC-62 = assay: Cytotoxicity against human UACC62 cells
OVCAR-3 = assay: Cytotoxicity against human OVCAR-3 cells
OVCAR-4 = assay: Cytotoxicity against human OVCAR4 cells
OVCAR-5 = assay: Cytotoxicity against human OVCAR5 cells
OVCAR-8 = assay: Cytotoxicity against human OVCAR8 cells
A498 = assay: Cytotoxicity against human A498 cells
ACHN = assay: Cytotoxicity against human ACHN cells
RXF 393 = assay: Cytotoxicity against human RXF393 cells
SN12C = assay: Cytotoxicity against human SN12C cells
TK-10 = assay: Cytotoxicity against human TK10 cells
UO-31 = assay: Cytotoxicity against human UO31 cells
PC-3 = assay: Cytotoxicity against human PC3 cells
DU-145 = assay: Cytotoxicity against human DU145 cells
MCF7 = assay: Cytotoxicity against human MCF7 cells
NCI/ADR-RES = assay: Cytotoxicity against human NCI/ADR-RES cells
MDA-MB-231 = assay: Cytotoxicity against human MDA-MB-231 cells
[1] = Cytotoxicity against human HS578T cells; details: Hs-578T
BT-549 = assay: Cytotoxicity against human BT549 cells
T47D = assay: Cytotoxicity against human T47D cells
[2] = read-out: Log LC50 (the source's name) (converted)

CC(=O)C1=CC[C@H]2[C@]3(C)CC[C@H]4C(C)(C)CCC[C@]4(C(=O)O)[C@H]3CC(=O)[C@]2(C)[C@H]1C=O
GI50 (HL-60): 282 nM | CC50 (HL-60; [2]): 6.31 µM | TGI (HL-60; read-out: Log TGI (converted)): 1380 nM | GI50 (MOLT-4): 257 nM | CC50 (MOLT-4; [2]): 4.47 µM | TGI (MOLT-4; read-out: Log TGI (converted)): 912 nM | GI50 (RPMI-8226): 603 nM | CC50 (RPMI-8226; [2]): 12.9 µM | TGI (RPMI-8226; read-out: Log TGI (converted)): 2340 nM | GI50 (SR): 457 nM | CC50 (SR; [2]): 6.76 µM | TGI (SR; read-out: Log TGI (converted)): 1860 nM | GI50 (A549): 2570 nM | CC50 (A549; [2]): 74.1 µM | TGI (A549; read-out: Log TGI (converted)): 12.6 µM | GI50 (EKVX): 2140 nM | CC50 (EKVX; [2]): 25.1 µM | TGI (EKVX; read-out: Log TGI (converted)): 5.62 µM | GI50 (HOP-62): 1350 nM | CC50 (HOP-62; [2]): 5.75 µM | TGI (HOP-62; read-out: Log TGI (converted)): 2750 nM | GI50 (HOP-92): 1910 nM | CC50 (HOP-92; [2]): 7.41 µM | TGI (HOP-92; read-out: Log TGI (converted)): 3.72 µM | GI50 (NCI-H226): 1820 nM | TGI (NCI-H226; read-out: Log TGI (converted)): 3.8 µM | GI50 (NCI-H23): 2000 nM | CC50 (NCI-H23; [2]): 9.12 µM | TGI (NCI-H23; read-out: Log TGI (converted)): 4.27 µM | GI50 (NCI-H322M): 3.55 µM | CC50 (NCI-H322M; [2]): 42.7 µM | TGI (NCI-H322M; read-out: Log TGI (converted)): 10.5 µM | GI50 (NCI-H460): 1660 nM | CC50 (NCI-H460; [2]): 8.71 µM | TGI (NCI-H460; read-out: Log TGI (converted)): 3.8 µM | GI50 (COLO 205): 794 nM | CC50 (COLO 205; [2]): 7.41 µM | TGI (COLO 205; read-out: Log TGI (converted)): 2570 nM | GI50 (HCC 2998): 1620 nM | CC50 (HCC 2998; [2]): 5.62 µM | TGI (HCC 2998; read-out: Log TGI (converted)): 3.02 µM | GI50 (HCT-116): 468 nM | CC50 (HCT-116; [2]): 4.07 µM | TGI (HCT-116; read-out: Log TGI (converted)): 1620 nM | GI50 (HCT-15): 759 nM | CC50 (HCT-15; [2]): 5.25 µM | TGI (HCT-15; read-out: Log TGI (converted)): 2140 nM | GI50 (KM12): 1410 nM | CC50 (KM12; [2]): 21.4 µM | TGI (KM12; read-out: Log TGI (converted)): 3.89 µM | GI50 (SW-620): 324 nM | CC50 (SW-620; [2]): 3.39 µM | TGI (SW-620; read-out: Log TGI (converted)): 1120 nM | GI50 (SF-268): 1200 nM | CC50 (SF-268; [2]): 7.24 µM | TGI (SF-268; read-out: Log TGI (converted)): 2950 nM | GI50 (SF-295): 1450 nM | CC50 (SF-295; [2]): 6.92 µM | TGI (SF-295; read-out: Log TGI (converted)): 3.16 µM | GI50 (SF-539): 741 nM | CC50 (SF-539; [2]): 4.57 µM | TGI (SF-539; read-out: Log TGI (converted)): 2040 nM | CC50 (SNB-19): 3.02 µM | GI50 (SNB-75): 1820 nM | CC50 (SNB-75; [2]): 5.89 µM | TGI (SNB-75; read-out: Log TGI (converted)): 3.31 µM | GI50 (M14): 1820 nM | CC50 (M14; [2]): 6.92 µM | TGI (M14; read-out: Log TGI (converted)): 3.55 µM | GI50 (SK-MEL-2): 2400 nM | CC50 (SK-MEL-2; [2]): 37.2 µM | TGI (SK-MEL-2; read-out: Log TGI (converted)): 5.25 µM | GI50 (SK-MEL-28): 355 nM | CC50 (SK-MEL-28; [2]): 4.47 µM | TGI (SK-MEL-28; read-out: Log TGI (converted)): 1350 nM | GI50 (SK-MEL-5): 1450 nM | CC50 (SK-MEL-5; [2]): 5.25 µM | TGI (SK-MEL-5; read-out: Log TGI (converted)): 2750 nM | GI50 (UACC-62): 1740 nM | CC50 (UACC-62; [2]): 5.89 µM | TGI (UACC-62; read-out: Log TGI (converted)): 3.24 µM | GI50 (OVCAR-3): 295 nM | CC50 (OVCAR-3; [2]): 3.47 µM | TGI (OVCAR-3; read-out: Log TGI (converted)): 1020 nM | GI50 (OVCAR-4): 813 nM | CC50 (OVCAR-4; [2]): 56.2 µM | TGI (OVCAR-4; read-out: Log TGI (converted)): 4.68 µM | GI50 (OVCAR-5): 1860 nM | CC50 (OVCAR-5; [2]): 8.91 µM | TGI (OVCAR-5; read-out: Log TGI (converted)): 4.07 µM | GI50 (OVCAR-8): 1320 nM | CC50 (OVCAR-8; [2]): > 100 µM | TGI (OVCAR-8; read-out: Log TGI (converted)): 3.63 µM | GI50 (A498): 1120 nM | LC50 (A498): 15.8 µM | TGI (A498; read-out: Log TGI (converted)): 3.63 µM | GI50 (ACHN): 479 nM | LC50 (ACHN): 4.17 µM | TGI (ACHN; read-out: Log TGI (converted)): 1700 nM | GI50 (RXF 393): 1170 nM | TGI (RXF 393; read-out: Log TGI (converted)): 2570 nM | GI50 (SN12C): 1550 nM | LC50 (SN12C): 6.46 µM | TGI (SN12C; read-out: Log TGI (converted)): 3.16 µM | GI50 (TK-10): 1170 nM | LC50 (TK-10): 6.61 µM | TGI (TK-10; read-out: Log TGI (converted)): 2820 nM | GI50 (UO-31): 1200 nM | LC50 (UO-31): 5.62 µM | TGI (UO-31; read-out: Log TGI (converted)): 2570 nM | GI50 (PC-3): 977 nM | LC50 (PC-3): 18.2 µM | TGI (PC-3; read-out: Log TGI (converted)): 3.63 µM | GI50 (DU-145): 1320 nM | LC50 (DU-145): 5.5 µM | TGI (DU-145; read-out: Log TGI (converted)): 2690 nM | GI50 (MCF7): 813 nM | LC50 (MCF7): 51.3 µM | TGI (MCF7; read-out: Log TGI (converted)): 9.33 µM | GI50 (NCI/ADR-RES): 1910 nM | LC50 (NCI/ADR-RES): 8.91 µM | TGI (NCI/ADR-RES; read-out: Log TGI (converted)): 4.07 µM | GI50 (MDA-MB-231): 1660 nM | LC50 (MDA-MB-231): 6.31 µM | TGI (MDA-MB-231; read-out: Log TGI (converted)): 3.24 µM | GI50 [1]: 1740 nM | LC50 [1]: 19.1 µM | TGI ([1]; read-out: Log TGI (converted)): 4.37 µM | GI50 (BT-549): 1260 nM | LC50 (BT-549): 6.17 µM | TGI (BT-549; read-out: Log TGI (converted)): 2750 nM | GI50 (T47D): 1170 nM | LC50 (T47D): 85.1 µM | TGI (T47D; read-out: Log TGI (converted)): 6.61 µM
